Measurements reported in US20260125440A1, “INCRETIN ANALOGS AND USES THEREOF” (ELI LILLY AND COMPANY, priority 2019, published 2026).
“And” between values parts separate entries of the source, which are not always exact repeats. Equal values may be shown once. Read-outs that look alike come from different tables or passages of the source. Marks after values point to notes of the source that are not given here.

Tests used:
[1] = Weight loss, metabolism and body composition in DIO C57/B16 mice; type: in vivo
Description: Methods: To investigate the effects of the Example compounds on parameters such as weight loss, metabolism and body composition, the Example compounds are dosed to C57B16 DIO mice. These animals, although not diabetic, display insulin resistance and dyslipidemia, all characteristics of metabolic syndrome, after being placed on a high fat diet for 20 weeks.
Here, DIO male C57/B16 mice at 20 weeks old are maintained on a calorie-rich diet are used in the following studies. […] After a 3-week acclimation to the facility, which includes 1 week of vehicle acclimation dosing, the mice are randomized according to their body weight, so each experimental group of animals would have similar body weight.
All groups contain 6 mice. […] Body weight and food intake are measured daily throughout the study, including 1 day after last dose (Day 15).
Absolute changes in body weight are calculated by subtracting the body weight of the same animal prior to the first injection of molecule. On Days 0 and 15, total fat mass is measured by nuclear magnetic resonance (NMR) using an Echo Medical System (Houston, TX) instrument. On Day 15, metabolic parameters are measured using Accu-Chek® Aviva® Glucometers (Roche; Indianapolis, IN) or a Hitachi clinical blood analyzer (Roche, Indianapolis, IN). Plasma insulin is determined using an electrochemiluminescence assay (Meso Scale Discovery, Rockville, MD).
Data are presented as mean±t SEM of 6animals per group in Tables 7 and 8 below. Statistical analysis is performed using repeated measures ANOVA, followed by Dunneti's method for multiple comparisons. Significant differences are identified as * with p<0.05.

[2] = Insulin secretion during ivGTT in male Wistar rats; type: in vivo; conditions: Sema: semaglutide 10 nmol/kg positive control, one per run of each Example compound
Description: Methods: An intravenous glucose tolerance test (ivGTT) in Male Wistar rats is used to estimate insulinotropic potency of the Example compounds. A GLP-1R agonist, semaglutide, is used as a positive control. […] Semaglutide is used as positive control in connection with each run of Example compounds ([…] dose).
A time 0 blood sample is collected into EDTA tubes after which glucose is administered ([…], 5 mL/kg). Blood samples are collected for glucose and insulin levels at time 2, 4, 6, 10, 20 and 30 min post intravenous administration of glucose. Plasma insulin is determined using an electrochemiluminescence assay (Meso Scale; Rockville, MD).
Statistical analysis is performed using JMP with a one-way ANOVA followed by Dunnett's comparison to the vehicle control.

[3] = Pharmacokinetics in male diet-induced obese (DIO) mice; type: in vivo; conditions: mouse, subcutaneous, single 200 nmol/kg SQ dose, plasma
Description: Methods: Male DIO mice are administered a single SQ dose of 200 nmol/kg (0.98 mg/kg) of Example compounds in 40 mM Tris-HCL pH8 buffer with 0.02% PS80 at a volume of 10 mL/kg. […] Plasma concentration of Example compounds are determined by a qualified Liquid Chromatography Mass Spectrometry (LC/MS) method at Q Squared Solutions BioSciences LLC (Ithaca, NY). The Example compounds and an internal standard are extracted from 100% mouse plasma using protein precipitation followed by solid phase extraction. The intact mass of the Example compounds, which includes peptide plus acyl chain, are detected by a Q-Exactive™ Orbitrap® mass spectrometer.

hGLP-1R = molecular target: T1, hGLP-1R (Homo sapiens, UniProt P43220); experiment: Functional cAMP assay in HEK-293 cells expressing hGLP-1R; type: cell-based; conditions: percent of maximal response to GLP-1(7-36)NH2, read-out: hGLP-1R Emax
T1 construct: expressed in transfected cells; host or cells: HEK-293 clonal cell line
T1 sequence (P43220 24-463): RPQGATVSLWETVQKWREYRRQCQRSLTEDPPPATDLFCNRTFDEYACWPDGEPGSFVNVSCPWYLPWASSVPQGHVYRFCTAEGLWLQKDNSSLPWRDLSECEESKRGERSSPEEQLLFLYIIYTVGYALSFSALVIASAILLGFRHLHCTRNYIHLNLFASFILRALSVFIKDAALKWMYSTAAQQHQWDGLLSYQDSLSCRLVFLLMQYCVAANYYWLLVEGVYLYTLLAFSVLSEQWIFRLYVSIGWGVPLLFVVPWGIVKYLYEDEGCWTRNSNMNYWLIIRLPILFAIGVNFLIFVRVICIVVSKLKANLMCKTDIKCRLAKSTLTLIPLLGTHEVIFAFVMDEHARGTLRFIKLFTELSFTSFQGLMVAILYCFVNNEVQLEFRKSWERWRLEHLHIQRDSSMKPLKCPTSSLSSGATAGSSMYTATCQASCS
Description: (§1) Experiments also are performed under identical assay conditions with the addition of 1.0% fatty acid free, globulin free human serum albumin (Sigma Cat #A3782).
(§2) After a 30-min incubation at 37° C., the resulting increase in intracellular cAMP is quantitatively determined using a CisBio cAMP Dynamic 2 HTRF Assay Kit (62AM4PEJ). Briefly, cAMP levels within the cell are detected by adding the cAMP-d2 conjugate in cell lysis buffer (10 μL) followed by the antibody anti-cAMP-Eu^3+-Cryptate, also in cell lysis buffer (10 μL). The resulting competitive assay is incubated for at least 60 min at room temperature, and then is detected using a PerkinElmer Envision® instrument with excitation at 320 nm and emission at 665 nm and 620 nm. Envision units (emission at 665 nm/620 nm*10,000) are inversely proportional to the amount of cAMP present and are converted to nM cAMP per well using a cAMP standard curve. […] A relative EC50 value and percent top (Emax) are derived by non-linear regression analysis using the percent maximal response vs. the concentration of peptide added, fitted to a four-parameter logistic equation.

hGIPR = molecular target: T2, hGIPR (Homo sapiens, UniProt P48546); experiment: Functional cAMP assay in HEK-293 cells expressing hGIPR; type: cell-based; conditions: percent of maximal response to GIP(1-42)NH2, read-out: hGIPR Emax
T2 construct: expressed in transfected cells; host or cells: HEK-293 clonal cell line
T2 sequence (P48546 22-466): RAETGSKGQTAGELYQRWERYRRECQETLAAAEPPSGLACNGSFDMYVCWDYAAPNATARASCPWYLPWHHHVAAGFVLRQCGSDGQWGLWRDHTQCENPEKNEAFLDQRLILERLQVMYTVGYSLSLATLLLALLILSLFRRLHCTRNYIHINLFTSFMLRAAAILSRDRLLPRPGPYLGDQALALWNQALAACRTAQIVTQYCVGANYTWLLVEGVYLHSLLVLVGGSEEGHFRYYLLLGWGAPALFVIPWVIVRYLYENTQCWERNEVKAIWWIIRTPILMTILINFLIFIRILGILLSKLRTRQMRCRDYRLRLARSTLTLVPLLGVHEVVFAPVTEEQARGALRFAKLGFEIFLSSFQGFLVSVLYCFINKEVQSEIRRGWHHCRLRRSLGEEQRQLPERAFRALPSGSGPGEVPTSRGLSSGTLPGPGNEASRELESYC
Description: as §1, §2

hGCGR = molecular target: T3, hGCGR (Homo sapiens, UniProt P47871, DEL55-55); experiment: Functional cAMP assay in HEK-293 cells expressing hGCGR; type: cell-based; conditions: percent of maximal response to GCG
T3 construct: expressed in transfected cells; host or cells: HEK-293 clonal cell line
T3 sequence (P47871 with tags, fused parts or gaps DEL55-55): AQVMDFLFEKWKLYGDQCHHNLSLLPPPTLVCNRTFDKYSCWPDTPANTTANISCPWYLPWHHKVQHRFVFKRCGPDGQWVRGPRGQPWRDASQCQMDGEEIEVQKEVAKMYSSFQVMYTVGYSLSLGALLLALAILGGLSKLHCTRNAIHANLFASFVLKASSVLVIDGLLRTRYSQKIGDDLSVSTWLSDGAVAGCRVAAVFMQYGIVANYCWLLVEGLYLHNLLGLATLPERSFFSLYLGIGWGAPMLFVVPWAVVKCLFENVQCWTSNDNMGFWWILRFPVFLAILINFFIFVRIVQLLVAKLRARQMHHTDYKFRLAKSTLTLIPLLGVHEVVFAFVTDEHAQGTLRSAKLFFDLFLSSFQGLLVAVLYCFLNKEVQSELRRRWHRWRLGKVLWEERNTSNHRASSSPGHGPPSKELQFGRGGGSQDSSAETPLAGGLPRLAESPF
Description: as §1, §2

[4] = 10 nmol/kg SQ daily, day 15 difference vs vehicle, DIO mice
[5] = HEK293, 0.1% bovine casein and 1.0% human serum albumin

Compound | Δ Body Weight (g) ([1]; 10 nmol/kg SQ daily 14 days, day 15, difference vs vehicle, DIO mice) | Δ Cholesterol [1, 4] | Δ Glucose [1, 4] | Δ Insulin [1, 4] | Δ Trigs [1, 4] | Fat Mass (%) ([1]; 10 nmol/kg SQ daily, difference in fat mass between days 0 and 15 (NMR), DIO mice) | Δ Body Weight (%) ([1]; 10 nmol/kg SQ daily, percent decrease between days 1 and 15, DIO mice) | AUC30 min of Insulin After Bolus IV Glucose [2] | AUC(0-inf) [3] | CL/F [3] | Cmax [3] | Tmax [3] | half-life ([3]; read-out: t½ (converted)) | Emax (hGLP-1R; [5]) | Emax (hGLP-1R; HEK293, 0.1% bovine casein) | Emax (hGIPR; [5]) | Emax (hGIPR; HEK293, 0.1% bovine casein) | Emax (hGCGR; [5]) | Emax (hGCGR; HEK293, 0.1% bovine casein)
semaglutide | −9.23 ± 0.58* g | −73.33 ± 4.17* mg/dL | -18.33 ± 2.81 mg/dL | -4.15 ± 2.23 ng/mL | 16.00 ± 0.38 mg/dL | −15.14 ± 1.93* % | −21.98 ± 2.58* % | 76.4 and 76.6 and 80.9 |  |  |  |  |  |  |  |  |  |  | 
CC[C@H](C)[C@H](NC(=O)[C@H](Cc1ccccc1)NC(=O)C(C)(C)NC(=O)[C@](C)(CC(C)C)NC(=O)[C@H](CCC(N)=O)NC(=O)[C@H](C)NC(=O)[C@H](CCCCNC(=O)COCCOCCNC(=O)CC[C@H](NC(=O)CCCCCCCCCCCCCCCCCCC(=O)O)C(=O)O)NC(=O)[C@H](CCCN)NC(=O)[C@H](CC(=O)O)NC(=O)[C@H](CC(C)C)NC(=O)[C@](C)(CC(C)C)NC(=O)[C@@H](NC(=O)[C@H](CO)NC(=O)[C@H](Cc1ccncc1)NC(=O)[C@H](CC(=O)O)NC(=O)[C@H](CO)NC(=O)[C@@H](NC(=O)[C@](C)(Cc1ccccc1F)NC(=O)[C@@H](NC(=O)CNC(=O)[C@H](CCC(N)=O)NC(=O)C(C)(C)NC(=O)[C@@H](N)Cc1ccc(O)cc1)[C@@H](C)O)[C@@H](C)O)[C@@H](C)CC)C(=O)N[C@H](CCC(=O)O)C(=O)N[C@@](C)(Cc1ccc(O)cc1)C(=O)N[C@@H](CC(C)C)C(=O)N[C@@H](CC(C)C)C(=O)N[C@@H](CCC(=O)O)C(=O)NCC(=O)NCC(=O)N1CCC[C@H]1C(=O)N[C@@H](CO)C(=O)N[C@@H](CO)C(=O)NCC(=O)N[C@@H](CCC(=O)O)C(=O)N1CCC[C@H]1C(=O)N1CCC[C@H]1C(=O)N1CCC[C@H]1C(=O)N[C@@H](CO)C(N)=O [Example 3] |  |  |  |  |  |  |  |  | 32.8 µM·h | 0.102 mL/min/kg | 1070 nM | 12 h | 780 min | 111 ± 5% | 107 ± 2% | 105 ± 5% | 103 ± 2% | 97 ± 9% | 99 ± 4%
